Experimental data published in patent US20240166690A1, “MULTI-TARGET CY[…] FOR OPIOID/NEUROPEPTIDE FF RECEPTORS, AND PREPARATION THEREFOR AND APPLICATION THEREOF” (SHANGHAI TIANCI LIFE SCIENCE DEVELOPMENT CO., LTD., priority 2021, published 2024).
pIC50: −log10 of the molar value. Bridge positions count the residues as written; N and C are the ends. Square brackets hold non-standard residues; d marks the D form. Peptide text beside a SMILES is read from it. NMeF = CN[C@@H](Cc1ccccc1)C(=O)O; dOrn = NCCC[C@@H](N)C(=O)O

Legend:
Kunming male mice [1] = assay: Photothermal tail flick experiment, oral administration; type: in vivo; details: for Maximum analgesic time: oral administration at the maximum analgesic dose; for Maximum analgesic time / analgesic duration: tail flick; for ED50 value (95% confidence interval), oral analgesic activity / analgesic duration: oral administration; for ED50 value (95% confidence interval), oral analgesic activity: photothermal tail flick
Experimental: Two administration methods were used: peripheral subcutaneous administration and oral administration. Subsequently, the analgesic activity of the drug was studied using an acute pain model of photothermal tail flick in mice.
1 mL sterile syringe was used for oral administration (p.o.), the pinhead was replaced with a mouse gastric lavage needle, and […] of the drug was orally administered. The skin on the neck and back of the mouse was grasped with the left hand with the abdomen facing upwards. Noted that the mouse's entire body was fixed to vertical, which was beneficial for oral gavage. A gastric lavage needle (No. 12 needle and 1 mL syringe) was held in the right hand and was inserted to the esophagus along the upper jaw which is pressed the tongue tightly from the corner of the mouse's mouth. Gastric lavage fluid can be injected when the needle inserted 2.5 cm. The inserting length of the needle should be determined through practice in advance, as there is a sense of falling into a hole after the needle is inserted. If the injection position was appropriate, it should be very smooth. […] This can cause immediate death of the mouse after gavage.
The photothermal tail flick experiment is based on the experimental method summarized by D'Amour and Smith to optimize the experimental parameters. The experiment selected Kunming male mice with body weigh 21±2 g, and ambient temperature controlled at 22±2° C. The experimental mice were allowed to drink water freely and were moved from the breeding room to the experimental area for adaptation for 30 minutes before starting the experiment. Then the mice were grab with the right hand and the tail hang freely. Then the mice's tail were placed on a radiation light source, 2-3 mm away from the mice tail. The intensity of radiation heat was adjusted to the tail flick time of mice being 3-5 s, which is the basic pain threshold of photothermal tail flick. The irradiation time of the mice tail should not exceed 10 s to prevent scalding of the mice tail, which was the maximum latency for photothermal tail flick. After administration, time points of 10, 20, 30, 45, 60, 90, 120, 180, 240, 300, 360, and 420 minutes were selected to measure the tail flick latency of mice after administration.
The analgesic effect of drugs was generally evaluated using the maximum analgesic effect MPE (%), MPE (%)=100×[(pain threshold after administration−basic pain threshold)/(10 seconds−basic pain threshold)]. 50% effective dose (ED50) refers to the corresponding drug dose that causes a 50% effect. ED50 and 95% confidence interval were calculated using MPE (%) and the drug concentration that achieves the maximum analgesic effect MPE (%) by the statistical software GraphPad Prism 5.0. The difference in analgesic effects was statistically analyzed using one-way ANOVA (Dunnett test), *P<0.05, **P<0.01, and ***P<0.001 indicated significance of the difference between the group with only drug injected and the saline group.

Kappa-opioid receptor = target: T1, Kappa-opioid receptor (Homo sapiens, UniProt P41145); assay: cAMP functional experiment, Kappa-opioid receptor (forskolin-induced cAMP accumulation); type: cell-based
T1 construct: expressed in transfected cells; host or cells: HEK293
Experimental: The agonistic activity of the cyclopeptide molecule of the present invention against Mu-opioid receptor, Delta-opioid receptor, Kappa-opioid receptor, NPFF1 receptor and NPFF2 receptor was evaluated by detecting the regulation of the cyclopeptide molecule of the present invention on the intracellular accumulation of cyclic adenosine monophosphate (cAMP) induced by Forskolin in HEK293 cells stably expressing these five receptors. The experimental method was: the cells were seeded in 24 well plates with 120000 cells per well, and were cultured for more than 20 hours. At the beginning of the experiment, the culture medium in the culture dish was suck out, and then 500 μL of preheated serum-free medium containing 1 mM of IBMX was added, the mixture was incubated at 37° C. for 10 minutes. Then each 10 μL of the drug to be tested and 10 μM of forskolin (final concentration) were added to each well. The mixture was incubated at 37° C. for 30 minutes. After incubation, all the liquid was suck out from the culture dish, 500 μL of 0.2 N hydrochloric acid was added to each well, the mixture was incubated at room temperature for 30 minutes to promote cell lysis. After lysis was complete, NaOH was added to neutralize the hydrochloric acid solution used for lysis. Then all the liquid was suck out from the culture dish into centrifuge tubes, the liquid was centrifuged at 12000 rpm for 2 minutes. 50 μL was taken to a clean centrifuge tube, 100 μL of 60 μg/μL PKA was added, and 100 μL of TE cAMP buffer was added to the blank control group (B). Another 50 μL of 0.5 μ Ci[^3H]cAMP was added to each of the above centrifuge tubes, the mixture was quickly mixed and incubated at 4° C. for more than 2 hours. After incubation, another 100 μL of activated carbon suspension was added to each tube, the mixture was vortex agitated evenly, placed in an ice bath for 1 minute, centrifuged at 5000 rpm for 4 minutes. 200 μL of supernatant after centrifugation in each tube was suck out to a 24 well plate, with an additional 700 μL of scintillator liquid added per well, then the 24 well plate was sealed with adhesive film, placed for 3 hours, then placed on the scintillation instrument for measurement.
The inhibitory effect of cAMP was represented by the percentage (% control) of drug inhibition of intracellular cAMP accumulation induced by Forskolin, wherein % control=(cAMP content when treated with Forskolin−cAMP content when Forskolin co-treated with the test drug)/(cAMP content when treated with Forskolin−cAMP content when treated with solvent). The related % control data was represented by mean±S.E.M. The dose-effect relationship of the drug was statistically analyzed using a nonlinear regression model, and the IC50 values of the multi-target cyclopeptide molecule on inhibition of Forskolin induced intracellular cAMP accumulation were calculated using the statistical software GraphPad Prism version 5.0.

Kunming male mice [2] = assay: Analgesic tolerance assay, oral injection for 8 consecutive days; type: in vivo; details: 8 consecutive days of oral injection, tail flick latency
Experimental: The analgesic tolerance experiment was conducted by orally injecting compounds 1 and 11 for 8 consecutive days, and then identifying the changes in the analgesic tail flick threshold from the first day to the eighth day through a photothermal tail flick experiment, thus evaluating the pharmacological activity of compounds 1 and 11 in the present invention in terms of analgesic tolerance.
21±2 g Kunming male mice were selected for the experiment, and the mice were eat freely. Generally, the basic pain threshold of mice was measured on the first day, followed by oral injection of compounds 1 and 11 for 8 consecutive days. The pain threshold at different time points was measured on the first day, and only the pain threshold at the highest analgesic point was measured on the following 7 days.
The experimental data was represented by tail flick time. The analgesic tolerance of drugs was compared using the tail flick latency at the maximum analgesic effect time point of different compounds. The tail flick latency data was represented by mean±S.E.M. The differences of analgesic effects of […] administration for eight days in mice were analyzed using one-way ANOVA (Tukey HSD test). *P<0.05, **P<0.01, and ***P<0.001 indicated a significant difference in analgesic effects compared to the injection of the drug on the first day.

T1 sequence (P41145 whole entry): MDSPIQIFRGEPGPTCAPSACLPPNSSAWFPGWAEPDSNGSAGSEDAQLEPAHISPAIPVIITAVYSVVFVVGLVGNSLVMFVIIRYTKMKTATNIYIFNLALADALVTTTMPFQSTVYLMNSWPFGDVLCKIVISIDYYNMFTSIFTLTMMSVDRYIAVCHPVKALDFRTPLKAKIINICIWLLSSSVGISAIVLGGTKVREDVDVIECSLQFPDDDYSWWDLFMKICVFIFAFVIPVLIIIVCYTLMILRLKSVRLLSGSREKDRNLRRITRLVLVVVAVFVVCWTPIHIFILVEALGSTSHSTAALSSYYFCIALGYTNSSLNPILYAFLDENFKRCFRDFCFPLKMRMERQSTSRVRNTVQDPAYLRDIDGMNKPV

SMILES	Maximum analgesic time (Kunming male mice [1]) [min]	ED50 value (95% confidence interval), oral analgesic activity (Kunming male mice [1]) [µg/kg]	analgesic duration (Kunming male mice [1]) [min]	pIC50 (Kappa-opioid receptor)	analgesic tolerance (Kunming male mice [2])
CN1C(=O)CNC(=O)[C@H](NC(=O)[C@@H](N)Cc2ccc(O)cc2)CCCNC(=O)CC[C@@H](C(=O)N2CCC[C@H]2C(=O)N[C@@H](CCC(N)=O)C(=O)N[C@@H](CCCNC(=N)N)C(=O)N[C@@H](Cc2ccccc2)C(N)=O)NC(=O)[C@@H]1Cc1ccccc1 [Compound 11, Tyr-c^[2,5][D-Orn-Gly-NMe-Phe-Glu]-Pro-Gln-Arg-Phe-NH2] (H-Y[dOrn]G[NMeF]EPQRF-NH2; lactam 2-5)	20	0.14	240	6.96	no analgesic tolerance observed
CN1C(=O)CNC(=O)[C@H](NC(=O)[C@@H](N)Cc2ccc(O)cc2)CCCCNC(=O)C[C@@H](C(=O)N2CCC[C@H]2C(=O)N[C@@H](CCC(N)=O)C(=O)N[C@@H](CCCNC(=N)N)C(=O)N[C@@H](Cc2ccccc2)C(N)=O)NC(=O)[C@@H]1Cc1ccccc1 [Compound 1, Tyr-c[D-Lys-Gly-NMe-Phe-Asp]-Pro-Gln-Arg-Phe-NH2] (H-Y[dK]G[NMeF]DPQRF-NH2; lactam 2-5)	30	1.37	240	7.41	no analgesic tolerance observed
